In PubChem BioAssay AID330 (DTP/NCI, 2004):
“And” between values parts separate entries of the source, which are not always exact repeats. Identical values can stand only once. Toxic doses and inconclusive results are not listed.

Test system: P388 leukemia ip, CD2F1 mice, survival T/C
Assay: NCI In Vivo Anticancer Drug Screen. Data for tumor model P388 Leukemia (intraperitoneal) in CD2F1 (CDF1) mice
Conditions: endpoint: median survival time, higher = longer survival
Procedure, shortened: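 Mice carrying the transplanted tumor received test compound or vehicle. Survival was recorded in each group, and the value is the treated-group measurement divided by that of the vehicle-treated control group.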

[1] = dose: 50.0 mg/kg/injection, schedule: Q01DX005 (ip), vehicle: saline with Tween-80
[2] = dose: 100.0 mg/kg/injection, schedule: Q01DX005 (ip), vehicle: saline with Tween-80
[3] = dose: 200.0 mg/kg/injection, schedule: Q01DX005 (ip), vehicle: saline with Tween-80
[4] = dose: 50.0 mg/kg/injection, schedule: Q04DX003 (ip), vehicle: saline with Tween-80
[5] = dose: 100.0 mg/kg/injection, schedule: Q04DX003 (ip), vehicle: saline with Tween-80
[6] = dose: 200.0 mg/kg/injection, schedule: Q04DX003 (ip), vehicle: saline with Tween-80
[7] = dose: 60.0 mg/kg/injection, schedule: Q01DX005 (ip), vehicle: Klucel (hydroxypropylcellulose) (HPC)
[8] = dose: 120.0 mg/kg/injection, schedule: Q01DX005 (ip), vehicle: Klucel (hydroxypropylcellulose) (HPC)
[9] = dose: 240.0 mg/kg/injection, schedule: Q01DX005 (ip), vehicle: Klucel (hydroxypropylcellulose) (HPC)
[10] = dose: 50.0 mg/kg/injection, schedule: Q01DX009 (ip), vehicle: saline with Tween-80
[11] = dose: 100.0 mg/kg/injection, schedule: Q01DX009 (ip), vehicle: saline with Tween-80
[12] = dose: 200.0 mg/kg/injection, schedule: Q01DX009 (ip), vehicle: saline with Tween-80

## CCOC(=O)CC1(C)SCCN1C(=O)OCC (configuration not stated)
dose: 25.0 mg/kg/injection, schedule: Q01DX005 (ip), vehicle: saline with Tween-80
  T/C: 102 % of control
[1]
  T/C: 98 % of control
[2]
  T/C: 91 % of control
[3]
  T/C: 105 % of control

## CCN1CCC(=O)C1
[4]
  T/C: 104 % of control
[5]
  T/C: 105 % of control
[6]
  T/C: 105 % of control

## N#CSCc1c(Cl)cccc1Cl
dose: 25.0 mg/kg/injection, schedule: Q01DX009 (ip), vehicle: other
  T/C: 104 % of control
dose: 50.0 mg/kg/injection, schedule: Q01DX009 (ip), vehicle: other
  T/C: 104 % of control
dose: 100.0 mg/kg/injection, schedule: Q01DX009 (ip), vehicle: other
  T/C: 103 % of control
dose: 200.0 mg/kg/injection, schedule: Q01DX009 (ip), vehicle: other
  T/C: 113 % of control

## CC1(C)OC(C)(C)C(=N\O)/C1=N/N
[7]
  T/C: 102 % of control
[8]
  T/C: 102 % of control
[9]
  T/C: 106 % of control

## COc1cccc(/C=N/NC(=O)c2ccccc2N2CCCC2)c1O
dose: 12.5 mg/kg/injection, schedule: Q01DX009 (ip), vehicle: olive oil, sesame oil, peanut oil
  T/C: 93 % of control
dose: 25.0 mg/kg/injection, schedule: Q01DX009 (ip), vehicle: olive oil, sesame oil, peanut oil
  T/C: 97 % of control
dose: 50.0 mg/kg/injection, schedule: Q01DX009 (ip), vehicle: olive oil, sesame oil, peanut oil
  T/C: 97 % of control
dose: 100.0 mg/kg/injection, schedule: Q01DX009 (ip), vehicle: olive oil, sesame oil, peanut oil
  T/C: 96 % of control
dose: 200.0 mg/kg/injection, schedule: Q01DX009 (ip), vehicle: olive oil, sesame oil, peanut oil
  T/C: 94 % of control

## ClCC1CSC(c2ccc3c(c2)OCO3)O1 (configuration not stated)
[10]
  T/C: 101 % of control and 96 % of control
[11]
  T/C: 121 % of control and 91 % of control
[12]
  T/C: 98 % of control

## CN(C)CC(C)(CN(C)C)C(=O)/C=C/c1ccc(Cl)c(Cl)c1
dose: 1.88 mg/kg/injection, schedule: Q01DX005 (ip), vehicle: saline with Tween-80
  T/C: 118 % of control
dose: 3.75 mg/kg/injection, schedule: Q01DX005 (ip), vehicle: saline with Tween-80
  T/C: 110 % of control
dose: 7.5 mg/kg/injection, schedule: Q01DX005 (ip), vehicle: saline with Tween-80
  T/C: 102 % of control and 110 % of control

## O=C1NC(c2ccccc2)(c2ccccc2)C(=O)N1CN1CC=CCC1
[7]
  T/C: 103 % of control
[8]
  T/C: 108 % of control
[9]
  T/C: 97 % of control

## CC(/C=N\Nc1ccc(C(=O)O)cc1)=N/N=C(N)N
dose: 100.0 mg/kg/injection, schedule: Q04DX003 (ip), vehicle: saline
  T/C: 99 % of control
dose: 200.0 mg/kg/injection, schedule: Q04DX003 (ip), vehicle: saline
  T/C: 98 % of control
dose: 400.0 mg/kg/injection, schedule: Q04DX003 (ip), vehicle: saline
  T/C: 100 % of control

## CC(C)CSC(C)C
[4]
  T/C: 100 % of control
[5]
  T/C: 104 % of control
[6]
  T/C: 100 % of control

## C=C1C2(OS(=O)(=O)C(F)(F)F)CCC(C2)C1(C)C (configuration not stated)
dose: 60.0 mg/kg/injection, schedule: Q01DX005 (ip), vehicle: saline
  T/C: 103 % of control
dose: 120.0 mg/kg/injection, schedule: Q01DX005 (ip), vehicle: saline
  T/C: 99 % of control
dose: 240.0 mg/kg/injection, schedule: Q01DX005 (ip), vehicle: saline
  T/C: 100 % of control

## CC(NC(=O)C(C)Oc1ccc(Cl)cc1Cl)C(=O)O (configuration not stated)
[1]
  T/C: 101 % of control
[2]
  T/C: 99 % of control
[3]
  T/C: 100 % of control

## CCC1(CC)SC(C)(C)N(C=O)C1C(=O)O (configuration not stated)
dose: 100.0 mg/kg/injection, schedule: Q04DX002 (ip), vehicle: saline with Tween-80
  T/C: 99 % of control
dose: 200.0 mg/kg/injection, schedule: Q04DX002 (ip), vehicle: saline with Tween-80
  T/C: 104 % of control
dose: 400.0 mg/kg/injection, schedule: Q04DX002 (ip), vehicle: saline with Tween-80
  T/C: 100 % of control

## CCCCCCCCCCCCCCCCCC(=O)Nc1ccn(C2OC(CO)C(O)C2O)c(=O)n1 (configuration not stated)
dose: 6.25 mg/kg/injection, schedule: Q01DX009 (ip), vehicle: saline with Tween-80
  T/C: 196 % of control
dose: 12.5 mg/kg/injection, schedule: Q01DX009 (ip), vehicle: saline with Tween-80
  T/C: 177 % of control and 227 % of control (2×)
dose: 25.0 mg/kg/injection, schedule: Q01DX009 (ip), vehicle: saline with Tween-80
  T/C: 113 % of control and 267 % of control and 270 % of control
[10]
  T/C: 195 % of control and 267 % of control and 270 % of control
[11]
  T/C: 86 % of control and 92 % of control

## CC(=O)OC1C(=C(Br)Br)C(COC(=O)c2ccccc2)OC1n1cnc2c(NC(=O)c3ccccc3)ncnc21 (configuration not stated)
dose: 100.0 mg/kg/injection, schedule: Q01DX001 (ip), vehicle: saline with Tween-80
  T/C: 98 % of control
dose: 200.0 mg/kg/injection, schedule: Q01DX001 (ip), vehicle: saline with Tween-80
  T/C: 90 % of control
dose: 400.0 mg/kg/injection, schedule: Q01DX001 (ip), vehicle: saline with Tween-80
  T/C: 92 % of control

## O=C1Nc2ccccc2C1(N1CCCCC1)N1CCCCC1
dose: 12.5 mg/kg/injection, schedule: Q01DX009 (ip), vehicle: saline
  T/C: 99 % of control
dose: 25.0 mg/kg/injection, schedule: Q01DX009 (ip), vehicle: saline
  T/C: 90 % of control
[10]
  T/C: 101 % of control
dose: 50.0 mg/kg/injection, schedule: Q01DX009 (ip), vehicle: saline
  T/C: 92 % of control
[12]
  T/C: 86 % of control

## COC(=O)C1C(COS(C)(=O)=O)ON2CCC(OC)(OC)C12 (configuration not stated)
dose: 50.0 mg/kg/injection, schedule: Q01DX005 (ip), vehicle: saline
  T/C: 95 % of control
dose: 100.0 mg/kg/injection, schedule: Q01DX005 (ip), vehicle: saline
  T/C: 98 % of control
dose: 200.0 mg/kg/injection, schedule: Q01DX005 (ip), vehicle: saline
  T/C: 95 % of control

## CC(C)=CC(=O)OC1C2C(C)=CC(O)C(O)C2(C)C2C3(O)OCC24C(CC(=O)OC14)C(C)C3O (configuration not stated)
dose: 0.31 mg/kg/injection, schedule: Q01DX005 (ip), vehicle: distilled water + Tween-80
  T/C: 123 % of control
dose: 0.75 mg/kg/injection, schedule: Q01DX009 (ip), vehicle: saline with Tween-80
  T/C: 160 % of control
dose: 1.0 mg/kg/injection, schedule: Q01DX005 (ip), vehicle: distilled water + Tween-80
  T/C: 154 % of control
dose: 2.0 mg/kg/injection, schedule: Q01DX005 (ip), vehicle: distilled water + Tween-80
  T/C: 154 % of control
dose: 4.0 mg/kg/injection, schedule: Q01DX005 (ip), vehicle: distilled water + Tween-80
  T/C: 163 % of control
dose: 5.0 mg/kg/injection, schedule: Q01DX005 (ip), vehicle: distilled water + Tween-80
  T/C: 153 % of control
dose: 6.0 mg/kg/injection, schedule: Q01DX009 (ip), vehicle: saline with Tween-80
  T/C: 109 % of control

## O=CNC(Cc1ccc(O)cc1)C(=O)O (configuration not stated)
dose: 12.5 mg/kg/injection, schedule: Q01DX005 (ip), vehicle: Klucel (hydroxypropylcellulose) (HPC)
  T/C: 102 % of control and 105 % of control
dose: 25.0 mg/kg/injection, schedule: Q01DX005 (ip), vehicle: Klucel (hydroxypropylcellulose) (HPC)
  T/C: 100 % of control and 104 % of control
dose: 100.0 mg/kg/injection, schedule: Q01DX005 (ip), vehicle: Klucel (hydroxypropylcellulose) (HPC)
  T/C: 101 % of control and 107 % of control
dose: 200.0 mg/kg/injection, schedule: Q01DX005 (ip), vehicle: Klucel (hydroxypropylcellulose) (HPC)
  T/C: 96 % of control

## N#CC1CCCC(CCc2ccccc2)(c2ccccc2)C1=N (configuration not stated)
dose: 50.0 mg/kg/injection, schedule: Q01DX001 (ip), vehicle: Klucel (hydroxypropylcellulose) (HPC)
  T/C: 100 % of control
dose: 100.0 mg/kg/injection, schedule: Q01DX001 (ip), vehicle: Klucel (hydroxypropylcellulose) (HPC)
  T/C: 99 % of control and 101 % of control
dose: 200.0 mg/kg/injection, schedule: Q01DX001 (ip), vehicle: Klucel (hydroxypropylcellulose) (HPC)
  T/C: 91 % of control
dose: 400.0 mg/kg/injection, schedule: Q01DX001 (ip), vehicle: Klucel (hydroxypropylcellulose) (HPC)
  T/C: 102 % of control and 92 % of control

## CCOc1c(N=Nc2cccc(Cl)c2)c(C)nn1C(=S)S
dose: 15.0 mg/kg/injection, schedule: Q01DX005 (ip), vehicle: Klucel + Tween-80
  T/C: 94 % of control
dose: 30.0 mg/kg/injection, schedule: Q01DX005 (ip), vehicle: Klucel + Tween-80
  T/C: 90 % of control

## [CH3][Ge]1([CH3])[CH2]C(c2ccccc2)C(c2ccccc2)[CH2]1 (configuration not stated)
[7]
  T/C: 100 % of control
[8]
  T/C: 97 % of control
[9]
  T/C: 98 % of control

## CC1=CC(=Nc2cc(Cl)c(O)c(Cl)c2)C=CC1=O
dose: 6.25 mg/kg/injection, schedule: Q01DX005 (ip), vehicle: saline
  T/C: 96 % of control
dose: 12.5 mg/kg/injection, schedule: Q01DX005 (ip), vehicle: saline
  T/C: 96 % of control
dose: 25.0 mg/kg/injection, schedule: Q01DX005 (ip), vehicle: saline
  T/C: 89 % of control
